Consider four compounds from patent US6518317B1, “Antiviral agents” (priority 1997, dated 2003).

Each structure is given as a SMILES string.

For one assay, the system named is Sendai virus. The settings on record: cited from earlier work.
Assay [1] concerns heat shock protein of 70 kDa. Description: Induction of heat shock protein of 70 kDa in HL-60 cells (SDS-PAGE and blotting). The assay is classed as cell-based, human. The note with it: HL-60 cells, as Table 1. As for the experimental part:
(1) An RPMI 1640 medium (5 ml) containing 10% of fetal bovine serum which contained 2×10^5 cells/ml of human promyelocytic leukemia cells HL-60 (ATCC CCL-240) was placed in each well of a six-well plate, incubated at 37° C. for 24 hours in the presence of 5% of CO2, then the cyclopentenone described in the referential example L was added thereto to make its final concentration 0, 10, 20, 30, 40, 50, or 100 μM and the incubation was further continued for eight hours more.
After completion of the incubation, cell numbers were counted and the cells were recovered by centrifugation and washed with phosphate-buffered saline (PBS) to prepare cyclopentenone-treated cells. In the meanwhile, cells which were heated at 45° C. for ten minutes followed by subjecting to the same incubation were prepared as well.
The cells treated as such were subjected to an SDS-polyacrylamid gel electrophoresis (SDS-PAGE) by a method mentioned in “Molecular Cloning” [Cold Spring Harbor Laboratory Press, (1989)]. The treated cells were suspended in an SDS-PAGE sample buffer to make the concentration 2.5×10^6 cells/ml, the resulting cell suspension was treated at 100° C. for ten minutes and each 5 μl thereof was applied to two sheets of SDS-PAGE gels (5% stacking gel; 10% separation gel) to conduct anelectrophoresis. One of the gels was Coomassie stained while another gel was subjected to a blotting to a polyvinylidene difluoride transfer membrane (Immobilon™, manufactured by Millipore, catalog no. IPVH000-10). The membrane was subjected to a blocking at 4° C. for one night with Block Ace (manufactured by Dainippon Pharmaceutical; catalog no. UK-B25).
The blocked membrane was made to react with monoclonal antibody HSP 72/73 (Ab-1) (manufactured by Oncogene Research Products, catalog no. HSP01) which would specifically react with heat-induced heat shock protein of 70 kDa and washed with TBS containing 0.05% of Tween 20 followed by further washing with TBS. After that, it was made to react with peroxidase-compounded secondary antibody HRP-Rabbit Anti-Mouse IgG (H+L) (manufactured by Zymed Laboratories, catalog no. 61-6520) and washed by the same manner as in the above operation. The membranes which were treated with primary and secondary antibodies as such were made to react with Renaissance™ (a chemiluminor reagent manufactured by Dupont NEN, catalog no. NEL-100) and photosensitized with an X-ray film to confirm the induction of heat shock protein of 70 kDa.
The result was that, by addition of cyclopentenone (20 to 30 μM), induction of heat shock protein of 70 kDa which is almost same as heat-treated at 45° C. for 10 minutes was confirmed. In Table 1, “+” indicates degree of intensity of induction and the more the numbers of “+”, the more the intensity of induction. Incidentally, “−” means that no induction was noted and “±” means the induction was slight.

A further assay concerns Ad5 dlX [an adenovirus]. Description: Adenovirus hexon protein in HeLa cells treated with cyclopentenone before infection. The class given is cell-based. The settings on record: Examples 2-(2)~(6). As for the experimental part: After that, the cells were washed with the DMEM containing 5% of fetal bovine serum, then the DMEM containing 5% of fetal bovine serum which contained Ad5 dlX [an adenovirus; Saito, etal.; Journal ofVirology, volume 54, pages 711-719 (1985)] was added to the cells so that the cells were infected therewith and incubation was conducted for 20 hours. […] The medium was discarded, 1 ml of 10% trichloroacetic acid was added to each of the wells and the cells were recovered by a scraper.
Then SDS-PAGE and blotting of the treated cells obtained hereinabove were conducted by the method of Example 1 to detect the expression of hexon proteins of the adenovirus. Incidentally, anti-adenovirus hexon antibody (AB 1056; manufactured by Chemicon International Inc.) was used as the primary antibody.

Assay [2] concerns carcinogenesis caused by a two-stage carcinogenesis on skin. Description: Two-stage (DMBA/TPA) carcinogenesis on skin of mice. The assay is classed as in vivo, mice of ICR strain. The settings on record: mouse, in vivo. As for the experimental part: Hair on the back of mice of ICR strain (purchased from Nippon SLC; seven weeks age; female) was shaved and DMBA (dimethylbenzanthracene) as an initiator in a form of a solution in acetone was applied thereto at the dose of 50 μg/mouse.
Thus, FIG. 5 is a graph showing the anti-carcinogenic action of the cyclopentenone in which ordinate is a carcinogenic rate while abscissa is time (weeks). In the graph, open triangles, black triangles and open circles stand for a group treated with 2.5 mg of the cyclopentenone per mouse (12 mice in total), a group treated with 0.8 mg of the cyclopentenone per mouse (11 mice in total) and a control group (12 mice in total), respectively.

Assay [3] deals with vesicular stomatitis virus. The settings on record: cited from earlier work.

Regarding `CCCCC[C@H](O)/C=C/[C@H]1C=CC(=O)[C@@H]1CCCCCCC(=O)O` [prostaglandin Al, prostaglandin A1], in the assay with Sendai virus (animal cells infected with Sendai virus), the “synthesis of HSP70 and HSP90” value is “induced”. The “synthesis of virus protein” value in the assay on Sendai virus (during the synthesis of HSP70 is induced) is reported as “inhibited”.
Turning to `O=C1C=C[C@H](O)[C@H]1O` (single isomer, unassigned) [(+)-cyclopentenone], the “induction of heat shock protein of 70 kDa, compared with the cyclopentenone” value in assay [1] was “Same results”. The “antiviral activity to adenovirus, compared with the cyclopentenone” value with Ad5 dlX [an adenovirus] is recorded as “Same results”. In assay [2], the “anti-promoter action in two-stage chemical carcinogenesis, compared with the cyclopentenone” value is “same result”.
For the compound `O=C1C=CCC1` [2-cyclopenten-1-one], in assay [3], the “concentration required for inducing the HSP70” value is listed as “several hundred”, the “synthesis of HSP70” value is reported as “induces” and the “synthesis of vesicular stomatitis virus protein” value is reported as “inhibits”.
Turning to `O=C1C=C[C@@H](O)[C@@H]1O` (single isomer, unassigned) [(−)-cyclopentenone], the “induction of heat shock protein of 70 kDa, compared with the cyclopentenone” value in assay [1] is “Same results”. Further, in the assay with Ad5 dlX [an adenovirus], the “antiviral activity to adenovirus, compared with the cyclopentenone” value is on record as “Same results”. Also, the “anti-promoter action in two-stage chemical carcinogenesis, compared with the cyclopentenone” value in assay [2] is recorded as “same result”.
